Measured values taken from US9308238B2, “Compositions and methods for modulating EMT and uses thereof” (Whitehead Institute for Biomedical Research, priority 2010, dated 2016).

Columns and labels:
HTwist and MSP cells [1] = experiment: Mammosphere assay, HTwist and MSP cells; format: cell-based, human; conditions: 10 μM; to a similar extent as added BMP4 protein
Description: FIGS. 10A-10E. […] (FIG. 10E) Mammosphere Assay: HTwist and MSP were treated daily during mammosphere formation (5 days) with BMP4 (0.5 μg/ml), SB431542 (10 μM) or a combination of both, n(mammospheres)/1000 cells, n=6.
(§1) Mammosphere and tumorsphere assay. Assays were performed as previously described with modifications (Dontu et al., 2003): 1000 cells/well were seeded in 96-well ultra-low adhesion plates (Corning) in MEGM medium containing 1.3% methylcellulose (Stem Cell Technologies) supplemented with 20 ng/ml EGF, 10 ng/ml bFGF (both Sigma) and B27 (Gibco). Primary spheres were dissociated by trypsinization and replated for secondary sphere formation after a period of 5-7 days.

HTwist and MSP cells [2] = experiment: Boyden chamber migration assay, HTwist and MSP cells; format: cell-based, human; conditions: for effect on migration: 10 μM, to a similar extent as added BMP4 protein
Description: (§2) FIGS. 3A-3E. Autocrine Signaling controls migration and mammosphere formation.
FIGS. 10A-10E. […] (FIG. 10C) Mammosphere assay: HTwist cells were treated daily during mammosphere formation (5 days) with proteins as described in (B); *control vs. single treatment, p<1×10^−5, **single vs. double-treatment, p<0.01, n(mammospheres)/1000 cells, n=6, (FIG. 10D) Migration Assay: HTwist and MSP cells were seeded into Boyden Chambers in the presence of TGF-beta Receptor I inhibitors A83-01 and SB431542 (SB43, both at 10 μM). (FIG. 10E) Mammosphere Assay: HTwist and MSP were treated daily during mammosphere formation (5 days) with BMP4 (0.5 μg/ml), SB431542 (10 μM) or a combination of both, n(mammospheres)/1000 cells, n=6.
Migration and invasion assays. For migration assays, 2×10^4 cells were seeded into 24-well cell culture inserts with 8-μm pores (Boyden Chambers, BD Falcon). For invasion assays, matrigel-coated inserts (BD Falcon) were used. After 12-48 hr, the cells on the upper surface of the filters were removed with a cotton swab. For visualization, cells on lower filter surfaces were fixed and stained with a Diff-Quick staining kit (Dade Behring).

GSK3 = conditions: ATP-competitive manner; cited from earlier work
26 other kinases = conditions: cited from earlier work
PKC = conditions: at >100 μM; cited from earlier work
Cdk-1/cyclin B = conditions: at >100 μM; cited from earlier work
CK-II = conditions: at >100 μM; cited from earlier work
PKA = conditions: at >100 μM; cited from earlier work
HMLE^24+ cells = experiment: Boyden chamber migration assay, HMLE^24+ cells; format: cell-based, human; conditions: 0.5 μg/ml in growth medium
Description: as §2
FIGS. 5A-5H. Concomitant stimulation of Wnt and TGF-beta pathways allows HMLE^24+ cells to enter into a mesenchymal and SC-like state. (FIG. 5A) RT-PCR: N-Cadherin, Zeb1 and Zeb2, L32 was loading control, n=3. Prior RNA isolation, HMLE^24+-shGFP or -shSFRP1 (stable knockdown of SFRP1, FIG. 12A) cells were treated for 3 days with daily doses of indicated factors: anti-DKK1 antibody (10 μg/ml), anti-E-Cadherin antibody (1 μg/ml), TGF-beta 1 (5 ng/ml), Wnt5a (250 ng/ml), (FIG. 5B) Brightfield microscopy: images of control, TGF-beta- and iEMT-cocktail treated HMLE^24+ cells after 14 days of treatment as indicated (see also FIG. 12D). (FIG. 5C) RT-PCR: Zeb1, Zeb2, E-Cadherin and N-Cadherin, L32 was loading control, n=3. After 14 day treatment, cells were expanded in absence of further stimulation for 4 passages. Shown are PBS-treated control HMLE^24+-shGFP and HMLE^24+-shSFRP1 cells, two HMLE^24+-shGFP cultures treated with TGF-beta 1 (TGF-β-a and -b), two HMLE^24+-shSFRP1 cultures treated with the iEMT-cocktail (iEMT-a and -b). (FIG. 5D) Immunoblot: EMT markers and associated autocrine pathways, cells generated as described in (C). (FIG. 5E) Migration (Boyden Chamber Assay) and Mammosphere Assay: cells generated as indicated in (C), *control vs. TGF-beta treatment, p<1×10^−4, **control vs. iEMT-treatment, p<1×10^−9, n(migration)=3, n(mammospheres)/1000 cells, n=7. (FIG. 5F) Flow cytometry: CD44 and CD24 cell-surface marker expression in control, TGF-beta-a and iEMT-a cells generated as described in (C). (FIG. 5G) Lung metastasis: cells expanded for 8 passages after cessation of treatment as described in (C) were transformed with RAS; 1.0×10^5 cells were injected into the mammary fat pads of mice; GFP-labeled metastases on the surface of the lungs were quantified; *control vs. all other groups, p<0.05, n=5 mice/group. […]

MSP cells = experiment: Mammosphere assay, MSP cells; format: cell-based, human; conditions: added daily for 5 days (FIG. 3D)
Description: as §2, §1

Cc1cccc(-c2nn(C(=S)Nc3ccccc3)cc2-c2ccnc3ccccc23)n1 [A83-01, reference compound]
effect on mammosphere formation (HTwist and MSP cells [1]): attenuated | effect on migration (HTwist and MSP cells [2]): attenuated

COc1ccc(CNC(=O)Nc2ncc([N+](=O)[O-])s2)cc1 [AR-A014418, N-(4-Methoxybenzyl)-N′-(5-nitro-1,3-thiazol-2-yl)urea]
Ki (GSK3): […] | inhibition of 26 other kinases (26 other kinases): does not significantly inhibit

NC(=O)c1ccc(-c2nc(-c3ccc4c(c3)OCO4)c(-c3ccccn3)[nH]2)cc1 [SB431542, reference compound]
effect on mammosphere formation (HTwist and MSP cells [1]): attenuated | effect on migration (HTwist and MSP cells [2]): attenuated

Cn1sc(=O)n(Cc2ccccc2)c1=O [TDZD-8, 4-Benzyl-2-methyl-1,2,4-thiadiazolidine-3,5-dione]
inhibition of PKC (PKC): does not inhibit | inhibition of Cdk-1/cyclin B (Cdk-1/cyclin B): does not inhibit | inhibition of CK-II (CK-II): does not inhibit | inhibition of PKA (PKA): does not inhibit

B1: DKK1: Recombinant human DKK1 protein (R&D Systems), secreted antagonist of canonical Wnt pathway (protein, UniProt O94907 32-266, looked up)
Dickkopf-related protein 1: TLNSVLNSNAIKNLPPPLGGAAGHPGSAVSAAPGILYPGGNKYQTIDNYQPYPCAEDEECGTDEYCASPTRGGDAGVQICLACRKRRKRCMRHAMCCPGNYCKNGICVSSDQNHFRGEIEETITESFGNDHSTLDGYSRRTTLSSKMYHTKGQEGSVCLRSSDCASGLCCARHFWSKICKPVLKEGQVCTKHRRKGSHGLEIFQRCYCGEGLSCRIQKDHHQASNSSRLHTCQRH
motility of HMLE^24+ cells upon addition of protein (HMLE^24+ cells): not further reduced | reduction of migration (HTwist and MSP cells [2]; at the highest concentration): 10 fold | reduction of primary mammosphere number (MSP cells): 20%
